Test results: patent US12002595B2, “Separation of metal ions by liquid-liquid extraction” (priority 2016, dated 2024)
In brackets after ≈: the same amount, converted by molar mass. Read-outs that look alike come from different tables or passages of the source.

Legend:
[1] = Stability constant (log βML) of ligand-metal complexes; assay type: binding
Excerpt: Thus far, no stability constant has been published for the actinium (Ac^3+) complex of 3,4,3-LI(1,2-HOPO). Based on the ionic radius of Ac^3+ (1.22 Å; See, D. Lundberg, I. Persson, The size of actinoid(III) ions—structural analysis vs. common misinterpretations, Coord. Chem. Rev. 318 (2016) 131-134. doi:10.1016/j.ccr.2016.04.003) and stability constants determined for other actinide and lanthanide ions, the stability of the Ac^3+ complex is expected to be very low, with a log β[AcL]- value of about 12 (FIG. 22). Stability of constant of 3,4,3-LI(1,2-HOPO) complexes with trivalent ions as a function of the ionic radius of the metal is shown in FIG. 22. […] Ionic radius values taken from Lundberg et al. for nona-coordinated metal ions. The Ac^3+ data point is an estimate. See, Lundberg, I. Persson, The size of actinoid(III) ions—structural analysis vs. common misinterpretations, Coord. Chem. Rev. 318 (2016) 131-134. doi:10.1016/j.ccr.2016.04.003; D. Lundberg, I. Persson, L. Eriksson, P. D'Angelo, S. De Panfilis, Structural Study of the N,N′-Dimethylpropyleneurea Solvated Lanthanoid(III) Ions in Solution and Solid State with an Analysis of the Ionic Radii of Lanthanoid(III) Ions, Inorg. Chem. 49 (2010) 4420-4432. doi:10.1021/ic100034q.

[2] = Aqueous solubility of the ligand; assay type: physicochemical; conditions: water; room temperature
[3] = Persistence of the metal complex versus acidity; assay type: binding; conditions: Hf^4+
[4] = Persistence of the metal complex versus acidity; assay type: binding; conditions: Zr^4+
[5] = Persistence of the metal complex versus acidity; assay type: binding; conditions: Ti^4+
[6] = Persistence of the metal complex versus acidity; assay type: binding; conditions: Sn^4+
[7] = Extraction by HDEHP at constant pH with 3,4,3-LI(1,2-HOPO) as hold-back reagent; conditions: 1 mM ligand, 0.1 M HNO3/1.9 M NaNO3; for % Extraction: extraction of ^243Americium(III)
Procedure: (§1) In FIG. 26, aqueous phase: [ligand]=1 mM, buffer 0.1 M HNO3/1.9 M NaNO3. Organic phase: HDEHP diluted in kerosene. [HDEHP]=0.05, 0.10, 0.25, 0.50, 1.0, or 2.0 M. T=25° C. Volume organic phase/Volume aqueous phase=1. Initial metal concentrations: [Pu-242]=10 μM, [Am-243]=0.25 μM, or [Gd-153]=0.16 nM. Phases analyzed after one contact. Contact time: 30 min.
The separation factor values given here must been seen as lower limit since the extraction of Pu(IV) is near zero.
as §1, with “28,” for “26,”, “concentrations:” for “concentrations: [Pu-242]=10 μM,”, “min. Corresponding separation factors (SF) are given on the right Y-axis. SF Gd/Am=Ratio [Gd]/[Am] in the final organic phase/Ratio [Gd]/[Am] in the initial aqueous solution.” for “min.”

[8] = Extraction by TODGA from HNO3 in the absence or presence of 1 mM 343HOPO
Procedure: Aqueous phase: 0 or 1 mM 343HOPO in HNO3. Organic phase: 0.1 M TODGA in kerosene. T=25° C. O/A=1, one contact. Points with arrows are lower limits.
Aqueous phase: 1 mM 343HOPO in 3 M HNO3. Organic phase: TODGA in kerosene. O/A=1. One contact. T=25° C.
For Example 20—Example 24, pH measurements were performed with a glass electrode (Metrohm-Micro Combi-response to [H+]) calibrated at 25.0° C. using three NIST standards. Extraction samples were analyzed by liquid scintillation counting (LSC). The distribution coefficient, D(M), of a given metal, M, is defined in Eq. 1, where [M]organic and [M]aqueous are the respective total concentrations of M in the organic and aqueous layers, after extraction. Both concentrations are proportional to the volumetric activity (in Bq/L) determined by LSC. The separation factor, SFM1/M2, between two metals, M1 and M2, and extraction yield were calculated according to Eq. 2 and Eq. 3, respectively.
In a typical experiment, the solvent (extractant diluted in kerosene) was pre-conditioned by shaking one volume of solvent with three volumes of aqueous phase (typically HNO3) at room temperature for 1 h, thrice. For radioisotope extractions, at least 400 μL aqueous phase (typically containing HNO3, a chelator and a radioisotope) and solvent were placed in air-tight screw-capped plastic tubes, triply-contained, and shaken in a thermoshaker at 300 rpm, 25° C., for at least 30 min. Samples were then centrifuged for 5 min at 3000 rpm and phases separated before analysis. LSC analyses were performed on a Packard Tri-Carb B4430 instrument (Perkin Elmer) after mixing sample aliquots or sample dilution aliquots (10 to 200 μL) with 10 mL of scintillation cocktail (UltimaGold LLT). Samples were counted for at least 6 min and results were background subtracted. The analytical samples contained between 0 and 800,000 CPM. Mixtures of ^249Bk and ^249Cf were analyzed using α/β discrimination and energy windows were set to 0-50 keV for low-energy β particles of ^249Bk and 50-1000 keV for α particles of ^249Cf. ^243Am and ^225Ac samples were counted at secular equilibrium.

[9] = Th^4+; 25° C.; cited from earlier work
[10] = Cd^2+; 25° C.; cited from earlier work
[11] = Am^3+; 25° C.; cited from earlier work

O=C(NCCCN(CCCCN(CCCNC(=O)c1cccc(=O)n1O)C(=O)c1cccc(=O)n1O)C(=O)c1cccc(=O)n1O)c1cccc(=O)n1O [3,4,3-LI(1,2-HOPO)]
log β[AcL]- ([1]; Ac^3+ complex, expected from ionic radius (1.22 Å) and constants of other ions): about 12
log βML ([1]; Ac^3+, estimate based on ionic radius): 10-14
solubility [2]: 1000 mM (≈ 751 mg/mL)
acidity range over which the ligand stays bound [3]: from pH 8 to strongly acidic solutions (at least 6 M HCl)
acidity range over which the ligand stays bound [4]: from pH 8 to strongly acidic solutions (at least 6 M HCl)
acidity range over which the ligand stays bound [5]: from pH 6 to 10 M HCl (at least)
acidity range over which the ligand stays bound [6]: from pH 8 to 1 M HCl
SF Gd^3+/Am^3+ ([7]; HDEHP 0.05 M): 24.1
% Extraction ([7]; HDEHP 0.05 M): 0.21%
SF Gd^3+/Am^3+ ([7]; HDEHP 0.10 M): 23.3
% Extraction ([7]; HDEHP 0.10 M): 1.32%
SF Gd^3+/Am^3+ ([7]; HDEHP 0.25 M): 25.3
% Extraction ([7]; HDEHP 0.25 M): 10.08%
SF Gd^3+/Am^3+ ([7]; HDEHP 0.50 M): 27.0
% Extraction ([7]; HDEHP 0.50 M): 30.27%
SF Gd^3+/Am^3+ ([7]; HDEHP 1.00 M): 45.6
% Extraction ([7]; HDEHP 1.00 M): 49.98%
SF Gd^3+/Am^3+ ([7]; HDEHP 2.00 M): 99.8
% Extraction ([7]; HDEHP 2.00 M): 57.29%
SF, isolation of Bk from adjacent actinides and fission products ([8]; one-step separation method, summary statement): > 3×10^6
SFCf/Bk ([8]; regardless of the TODGA and HNO3 concentrations): > 1,000,000
Bk extracted ([8]; throughout the acidity range, 1 mM 343HOPO, 0.1 M TODGA): less than 1%
log βML [9]: 40.1 ± 0.5
log βML [10]: 16.1 ± 0.3
log βML [11]: 20.4 ± 0.2
